Laboratory results reported in the NIST ThermoML archive (doi:10.1016/j.jct.2010.05.002).

Assay: molar heat capacity at constant pressure
Details: 101.33 kPa, Vacuum adiabatic calorimetry

CC(C)(C)c1ccc(-c2ccccc2)cc1 [4-(1,1-dimethylethyl)-1,1'-biphenyl]
Details	molar heat capacity at constant pressure [J/K/mol]
156.5 K, Crystal	164.59
157.48 K, Crystal	165.54
158.46 K, Crystal	168.2
159.4 K, Crystal	167.88
160.49 K, Crystal	170.03
162.35 K, Crystal	170.22
163.32 K, Crystal	171.45
164.3 K, Crystal	171.68
165.27 K, Crystal	172.24
166.24 K, Crystal	173.77
167.21 K, Crystal	175.03
168.17 K, Crystal	175.74
169.13 K, Crystal	176.91
170.1 K, Crystal	177.85
171.06 K, Crystal	178.74
172.03 K, Crystal	179.57
172.99 K, Crystal	180.33
173.96 K, Crystal	181.16
174.88 K, Crystal	181.91
175.84 K, Crystal	182.48
176.8 K, Crystal	183.39
177.75 K, Crystal	184.41
178.71 K, Crystal	186.15
179.67 K, Crystal	186.69
180.62 K, Crystal	187.72
181.58 K, Crystal	187.66
182.53 K, Crystal	188.58
183.48 K, Crystal	190.07
184.43 K, Crystal	190.57
185.38 K, Crystal	191.97
186.33 K, Crystal	192.5
187.27 K, Crystal	193.52
188.22 K, Crystal	194.65
189.16 K, Crystal	195.58
190.05 K, Crystal	196.73
190.99 K, Crystal	197.88
191.93 K, Crystal	198.13
192.87 K, Crystal	199.81
193.81 K, Crystal	200.3
194.75 K, Crystal	200.51
195.68 K, Crystal	201.32
196.61 K, Crystal	203.32
197.55 K, Crystal	203.52
198.48 K, Crystal	205.18
199.41 K, Crystal	205.85
200.34 K, Crystal	205.72
201.52 K, Crystal	207.22
202.94 K, Crystal	208.68
204.37 K, Crystal	210.19
205.79 K, Crystal	211.33
207.14 K, Crystal	212.7
208.55 K, Crystal	214.44
209.96 K, Crystal	215.21
211.37 K, Crystal	217.19
212.78 K, Crystal	218.22
214.19 K, Crystal	219.53
215.59 K, Crystal	220.68
216.99 K, Crystal	222.17
218.39 K, Crystal	224.18
219.79 K, Crystal	225.72
221.18 K, Crystal	226.72
222.9 K, Crystal	227.94
224.62 K, Crystal	229.7
226 K, Crystal	231.67
227.39 K, Crystal	232.23
228.77 K, Crystal	233.85
230.14 K, Crystal	234.83
231.52 K, Crystal	236.49
232.88 K, Crystal	237.84
234.25 K, Crystal	239.02
235.61 K, Crystal	240.58
236.97 K, Crystal	241.66
238.33 K, Crystal	243.18
239.69 K, Crystal	244.52
241.05 K, Crystal	245.68
242.4 K, Crystal	247.57
243.75 K, Crystal	248.49
244.98 K, Crystal	249.71
246.33 K, Crystal	251.82
247.66 K, Crystal	253.81
249 K, Crystal	254.6
250.34 K, Crystal	256.26
251.68 K, Crystal	256.95
253.01 K, Crystal	258.51
254.34 K, Crystal	259.55
255.66 K, Crystal	261.49
256.97 K, Crystal	262.33
258.29 K, Crystal	263.11
259.61 K, Crystal	265.21
260.92 K, Crystal	267.1
262.23 K, Crystal	268.4
263.54 K, Crystal	269.72
264.84 K, Crystal	270.96
265.99 K, Crystal	271.74
267.28 K, Crystal	273.32
268.57 K, Crystal	275.22
269.86 K, Crystal	276.29
271.15 K, Crystal	277.98
272.43 K, Crystal	280.14
273.71 K, Crystal	281.15
274.98 K, Crystal	281.51
276.26 K, Crystal	282.58
277.52 K, Crystal	284.25
278.79 K, Crystal	285.49
280.04 K, Crystal	286.95
281.3 K, Crystal	288.13
282.55 K, Crystal	289.87
283.8 K, Crystal	290.87
285.04 K, Crystal	291.7
286.08 K, Crystal	293.13
287.32 K, Crystal	295.16
288.53 K, Crystal	295.47
289.76 K, Crystal	296.85
292.2 K, Crystal	299.34
293.41 K, Crystal	300.48
294.63 K, Crystal	301.51
295.83 K, Crystal	302.32
297.03 K, Crystal	303.76
298.23 K, Crystal	303.58
299.42 K, Crystal	305.47
300.61 K, Crystal	306.04
301.79 K, Crystal	308.28
302.89 K, Crystal	309.67
303.99 K, Crystal	310.47
305.04 K, Crystal	312.55
306.34 K, Crystal	313.92
307.46 K, Crystal	315.51
308.62 K, Crystal	315.74
309.76 K, Crystal	319.18
310.9 K, Crystal	320.42
312.03 K, Crystal	320.51
313.15 K, Crystal	321.63
314.25 K, Crystal	323.46
315.35 K, Crystal	326.54
316.44 K, Crystal	326.58
317.52 K, Crystal	328.97
318.58 K, Crystal	333.26
325.87 K, Liquid	381
327.07 K, Liquid	382.02
328.07 K, Liquid	382.22
329.06 K, Liquid	382.84
330.05 K, Liquid	383.2
331.03 K, Liquid	383.56
332.01 K, Liquid	384.21
332.98 K, Liquid	384.73
333.94 K, Liquid	386.4
334.9 K, Liquid	386.26
335.85 K, Liquid	387.48
336.8 K, Liquid	388
337.74 K, Liquid	388.46
338.68 K, Liquid	388.8
339.61 K, Liquid	389.81
340.53 K, Liquid	390.68
340.99 K, Liquid	390.97
341.91 K, Liquid	391.9
342.82 K, Liquid	392.95
343.73 K, Liquid	393.35
344.62 K, Liquid	393.96
345.52 K, Liquid	394.82
346.4 K, Liquid	396.04
347.28 K, Liquid	396.15
348.16 K, Liquid	397.03
349.03 K, Liquid	396.87
349.89 K, Liquid	397.86
350.75 K, Liquid	398.4
351.6 K, Liquid	397.8
352.45 K, Liquid	397.92
354.12 K, Liquid	401.27
354.41 K, Liquid	401.25
355.24 K, Liquid	400.85
356.06 K, Liquid	400.95
356.87 K, Liquid	401.61
357.67 K, Liquid	402.4
358.47 K, Liquid	402.62
359.27 K, Liquid	402.51
360.06 K, Liquid	402.5
360.84 K, Liquid	404.15
361.61 K, Liquid	405.1
362.38 K, Liquid	405.27
363.15 K, Liquid	406.09
363.91 K, Liquid	406.9
364.66 K, Liquid	406.47
365.41 K, Liquid	407.47
366.15 K, Liquid	407.61
366.27 K, Liquid	407.63
367.01 K, Liquid	406.87
367.73 K, Liquid	408.31
368.45 K, Liquid	410.51
369.17 K, Liquid	410.57
369.88 K, Liquid	409.74
370.58 K, Liquid	410.84
